In brackets after ≈: the same amount, converted by molar mass. Like-named read-outs stand apart in the source and are kept apart here. Values belong to the compound of their own block, whether it stands above or below them.
Key:
[1] = Solubility of lumiflavin and FC12 in various solvents; format: physicochemical; settings: organic solvent or mixture
Text: The facile nanotube individualization and high QYs afforded by FC12 in certain solvents, begs the question why these solvents behave so differently. The answer to this question is believed to originate from the relative solubility differences of the two FC12 sub-moieties (i.e., isoalloxazine ring and dodecyl side chain). For this, we procured 10-methyl isoalloxazine (lumiflavin), the closest analogue to the isoalloxazine ring, and investigated its solubility characteristics versus that of FC12. Table 1 tabulates the solubilities of lumiflavin and FC12 as a function of dielectric constant (∈) of various solvents. […] As solvent polarity increases (i.e., ethylacetate, THF and acetone), their solubilities increase accordingly. […] Such behavior is believed to originate from the moderate-strong H-bonding ability of pyridine and DMF, capable of dissociating the H-bonded FC12 ribbon responsible for nanotube-dispersion. […] Two distinct regimes can be discerned, with high and low QYs for low and medium polarity solvents, respectively. For both regimes, the increase in FC12 solubility was followed by a decrease in QY. Since H-bonding is responsible for both helix stability and FC12/lumiflavine dissolution, increasing solvent polarity is expected to increase the helix dissociation constant and render FC12-wrapped nanotubes more prone to bundling and less capable to desorb 1,4-endoperoxide defects. On the basis of the observed aggregation tendencies, the low QYs in regime B appear to be dominated by nanotube bundling. In low-polarity solvents, the tight helical wrapping prevents nanotube bundling, which results in higher QY. Moreover, the proportionality of the helix dissociation constant to the FC12 solubility, explains the linear dependence of 1,4-endoperoxide defect removal along the one dimensional SWNT structure.

[2] = Solubility of riboflavin in neutral aqueous media (SWNT dispersion); format: physicochemical
Description: A representative procedure for dispersing SWNTs with flavin mononucleotide (FMN), FAD and riboflavin involves a 4 hours cup horn sonication of SWNTs in H2O or D2O. This is followed by 2 hours of centrifugation at 15 kg, where the upper 70 to 80% of the supernatant was decanted for further investigation. As noted above, the FIG. 1 illustrates the chemical structure of riboflavin, FMN, and FAD used for such aqueous dispersion of SWNTs. While the basic flavin moiety is hydrophobic, these flavin derivatives have water-miscible tail groups. Such amphiphilic structures together with the aforementioned strong π-π interactions with both metallic and semiconducting SWNTs, can explain the effective nanotube dispersion in aqueous media.
FIG. 6 illustrates the UV-Vis-NIR spectra of HiPco dispersions with FMN, FAD, and riboflavin. The first (E11^S) and second (E22^S) optical transitions of semiconducting SWNTs can be witnessed in […] range, respectively. Those E11^S and E22^S features are clearly apparent for the FMN and FAD spectra, which are in good accordance with that of SDBS-dispersed HiPco SWNTs. […] Upon sonication of riboflavin-SWNT in basic media (pH 11), the resulting dispersions recover the aforementioned E11^S and E22^S features (data not shown), which indicates the successful dispersion of SWNTs. […]

- solubility ([1]; DMF (N,N-dimethyl formamide), in DMF, read-out: Lumiflavin solubility): 317 µg/mL (≈ 1240 µM)
- solubility ([1]; THF (tetrahydrofuran), in THF, read-out: Lumiflavin solubility): 46.2 µg/mL (≈ 180 µM)
- solubility ([1]; in acetone, read-out: Lumiflavin solubility): 53.9 µg/mL (≈ 210 µM)
- solubility ([1]; in benzene, read-out: Lumiflavin solubility): 4.4 µg/mL (≈ 17.2 µM)
- solubility ([1]; in ethylacetate, read-out: Lumiflavin solubility): 14.1 µg/mL (≈ 55 µM)
- solubility ([1]; in o-xylene, read-out: Lumiflavin solubility): 5.9 µg/mL (≈ 23 µM)
- solubility ([1]; in pyridine, read-out: Lumiflavin solubility): 529 µg/mL (≈ 2060 µM)
- solubility ([1]; in toluene, read-out: Lumiflavin solubility): 4.3 µg/mL (≈ 16.8 µM)
SMILES: Cc1cc2nc3c(=O)[nH]c(=O)nc-3n(C)c2cc1C [Lumiflavin]

- solubility in neutral aqueous media [2]: insolubility
SMILES: Cc1cc2nc3c(=O)[nH]c(=O)nc-3n(C[C@H](O)[C@H](O)[C@H](O)CO)c2cc1C [riboflavin]

- solubility ([1]; DMF (N,N-dimethyl formamide), in DMF, read-out: FC12 solubility): 22900 µg/mL (≈ 55700 µM)
- solubility ([1]; THF (tetrahydrofuran), in THF, read-out: FC12 solubility): 11000 µg/mL (≈ 26900 µM)
- solubility ([1]; in acetone, read-out: FC12 solubility): 1810 µg/mL (≈ 4410 µM)
- solubility ([1]; in benzene, read-out: FC12 solubility): 310 µg/mL (≈ 755 µM)
- solubility ([1]; in ethylacetate, read-out: FC12 solubility): 510 µg/mL (≈ 1240 µM)
- solubility ([1]; in o-xylene, read-out: FC12 solubility): 250 µg/mL (≈ 609 µM)
- solubility ([1]; in pyridine, read-out: FC12 solubility): 70400 µg/mL (≈ 171000 µM)
- solubility ([1]; in toluene, read-out: FC12 solubility): 230 µg/mL (≈ 560 µM)
SMILES: CCCCCCCCCCCCn1c2nc(=O)[nH]c(=O)c-2nc2cc(C)c(C)cc21 [FC12, 10-dodecyl-7,8-dimethyl-10H-benzo[g]pteridine-2,4-dione]

— patent US8193430B2, “Methods for separating carbon nanotubes” (The University of Connecticut, priority 2008, dated 2012)
